From patent publication US20170320870A1 (Medical Research Council Technology, priority 2009, published 2017)

Biological target: T1, LRRK2 wild type (recombinant human, catalytic domain amino acids 970-2527, GST-tagged) (Homo sapiens, UniProt Q5S007)
T1 construct: The wild type used was recombinant human, catalytic domain (amino acids 970-2527) GST-tagged, expressed in insect cells; GST; purchased Invitrogen Corporation PV4873; host or cells: insect cells
Experiment: LRRK2 wild type protein kinase assay ([γ-33P] ATP, peptide substrate […]), IC50
Assay type: biochemical
Details: LRRK2 (variant not given); read-out: Potency score, LRRK2 IC50
How it was run: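 IC50 derived from duplicate 10-point titrations, with 33P incorporation into a 100 μM peptide counted after P81 filter capture. Roughly 5 nM unactivated kinase reacted with Mg/[γ-33P]ATP for 180 min at room temperature (~21 °C), pH 7.5 Tris buffer containing 10 mM MgCl2, EGTA and DTT; acid-quenched.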

T1 sequence (Q5S007 970-2527): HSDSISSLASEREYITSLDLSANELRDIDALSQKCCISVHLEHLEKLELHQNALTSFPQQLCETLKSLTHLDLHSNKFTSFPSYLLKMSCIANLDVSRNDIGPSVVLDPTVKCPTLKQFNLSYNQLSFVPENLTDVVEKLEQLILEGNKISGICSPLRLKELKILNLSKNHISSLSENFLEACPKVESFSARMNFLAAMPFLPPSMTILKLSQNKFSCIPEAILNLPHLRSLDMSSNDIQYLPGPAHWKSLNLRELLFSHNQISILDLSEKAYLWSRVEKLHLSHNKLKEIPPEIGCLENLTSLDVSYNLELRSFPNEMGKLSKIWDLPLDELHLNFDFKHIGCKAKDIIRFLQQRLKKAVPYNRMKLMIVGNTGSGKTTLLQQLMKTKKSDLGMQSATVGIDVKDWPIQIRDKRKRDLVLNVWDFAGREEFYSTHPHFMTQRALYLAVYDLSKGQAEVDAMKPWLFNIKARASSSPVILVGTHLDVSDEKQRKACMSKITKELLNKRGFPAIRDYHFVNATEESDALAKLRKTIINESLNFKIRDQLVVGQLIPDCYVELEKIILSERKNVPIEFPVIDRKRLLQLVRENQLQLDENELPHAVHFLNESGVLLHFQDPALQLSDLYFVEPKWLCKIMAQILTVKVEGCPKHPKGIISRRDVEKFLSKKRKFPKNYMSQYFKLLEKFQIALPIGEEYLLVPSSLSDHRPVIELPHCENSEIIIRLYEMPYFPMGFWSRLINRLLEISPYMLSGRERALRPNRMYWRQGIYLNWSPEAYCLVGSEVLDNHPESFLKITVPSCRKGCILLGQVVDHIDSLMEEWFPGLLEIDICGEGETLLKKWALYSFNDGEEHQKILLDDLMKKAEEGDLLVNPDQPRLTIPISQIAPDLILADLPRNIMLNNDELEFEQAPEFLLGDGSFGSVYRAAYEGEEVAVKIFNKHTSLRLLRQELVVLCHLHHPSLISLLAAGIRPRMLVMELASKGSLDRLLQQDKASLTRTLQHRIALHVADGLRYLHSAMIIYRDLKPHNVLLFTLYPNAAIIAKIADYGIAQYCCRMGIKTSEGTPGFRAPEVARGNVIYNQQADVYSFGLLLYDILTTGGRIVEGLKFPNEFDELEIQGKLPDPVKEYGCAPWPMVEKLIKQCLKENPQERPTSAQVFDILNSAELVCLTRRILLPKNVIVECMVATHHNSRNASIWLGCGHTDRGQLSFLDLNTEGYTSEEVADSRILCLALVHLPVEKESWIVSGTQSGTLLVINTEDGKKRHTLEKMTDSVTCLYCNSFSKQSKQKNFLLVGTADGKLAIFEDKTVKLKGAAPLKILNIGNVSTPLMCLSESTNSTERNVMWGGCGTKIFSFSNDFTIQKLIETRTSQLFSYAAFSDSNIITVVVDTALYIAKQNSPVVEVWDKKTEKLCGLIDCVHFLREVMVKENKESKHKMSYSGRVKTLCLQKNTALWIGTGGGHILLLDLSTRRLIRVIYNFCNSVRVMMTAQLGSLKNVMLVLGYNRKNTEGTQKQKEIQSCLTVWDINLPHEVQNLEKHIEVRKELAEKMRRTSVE

Row | IC50 [µM] | Compound
1 | 1 to 10 | Cc1n[nH]c2ccnc(N[C@H](C)C3CCCCC3)c12 [Example 38, ((R)-1-Cyclohexyl-ethyl)-(3-methyl-1H-pyrazolo[4,3-c]pyridin-4-yl)-amine]
2 | 0.1 to 1 | Cc1n[nH]c2ccnc(Nc3ccc(Cl)cc3)c12 [Example 310, (4-Chloro-phenyl)-(3-methyl-1H-pyrazolo[4,3-c]pyridin-4-yl)-amine]
3 | 1 to 10 | Cc1n[nH]c2ccnc(-c3ccc(N4CCOCC4)cc3)c12 [Example 53, 3-Methyl-4-(4-morpholin-4-yl-phenyl)-1H-pyrazolo[4,3-c] pyridine]
4 | 0.1 to 1 | Cc1n[nH]c2ccnc(-c3ccco3)c12 [Example 48, 4-Furan-2-yl-3-methyl-1H-pyrazolo[4,3-c]pyridine]
5 | 0.1 to 1 | Cc1n[nH]c2ccnc(OCC3CC3)c12 [Example 123, 4-Cyclopropyl-methoxy-3-methyl-1H-pyrazolo [4,3-c]pyridine]
6 | 0.1 to 1 | Cc1n[nH]c2ccnc(Nc3cccc(F)c3)c12 [Example 65, (3-Fluoro-phenyl)-(3-methyl-1H-pyrazolo[4,3-c]pyridin-4-yl)-amine]
7 | 0.1 to 1 | Cc1n[nH]c2ccnc(NC3CCC(F)(F)CC3)c12 [Example 20, (4,4-Difluoro-cyclohexyl)-(3-methyl-1H-pyrazolo[4,3-c]pyridin-4-yl)-amine]
8 | 0.1 to 1 | CCOc1ccc(Nc2nccc3[nH]nc(C)c23)cc1 [Example 72, (4-Ethoxy-phenyl)-(3-methyl-1H-pyrazolo[4,3-c]pyridin-4-yl)-amine]
9 | 0.1 to 1 | Cc1n[nH]c2ccnc(NC3CCS(=O)(=O)CC3)c12 [Example 46, (1,1-Dioxo-hexahydro-1λ^6-thiopyran-4-yl)-(3-methyl-1H-pyrazolo[4,3-c]pyridin-4-yl)-amine]
10 | 1 to 10 | Cc1cc(C)n(CCNc2nccc3[nH]nc(C)c23)n1 [Example 323, [2-(3,5-Dimethyl-pyrazol-1-yl)-ethyl]-(3-methyl-1H-pyrazolo[4,3-c]pyridin-4-yl)-amine]
11 | 0.1 to 1 | Cc1n[nH]c2ccnc(OC3CCCC3(C)C)c12 (stereo not shown) [Example 289, 4-(2,2-Dimethyl-cyclopentyloxy)-3-methyl-1H-pyrazolo[4,3-c]pyridine]

Second part, the molecule before the results:

Row | Compound | IC50 [µM]
12 | Cc1cccc(-c2n[nH]c3ccnc(NC4CCCCC4)c23)c1 [Example 149, Cyclohexyl-(3-m-tolyl-1H-pyrazolo[4,3-c]pyridin-4-yl)-amine] | 0.1 to 1
13 | O=C1CCCN1c1n[nH]c2ccnc(NC3CCCCC3)c12 [Example 230, 1-(4-Cyclohexylamino-1H-pyrazolo[4,3-c]pyridin-3-yl)-pyrrolidin-2-one] | 1 to 10
14 | O=C(CCc1n[nH]c2ccnc(NC3CCCCC3)c12)N1CCC[C@@H](c2ccccc2)C1 [Example 190, 3-(4-Cyclohexylamino-1H-pyrazolo[4,3-c]pyridin-3-yl)-1-((S)-3-phenyl-piperidin-1-yl)-propan-1-one] | 0.1 to 1
15 | Cc1n[nH]c2ccnc(Nc3ccc(Cl)c(Cl)c3)c12 [Example 305, (3,4-Dichloro-phenyl)-(3-methyl-1H-pyrazolo[4,3-c]pyridin-4-yl)-amine] | 0.1 to 1
16 | Cc1n[nH]c2ccnc(Nc3ccc(C(=O)N(C)c4ccccc4)cc3)c12 [Example 109, N-Methyl-4-(3-methyl-1H-pyrazolo[4,3-c]pyridin-4-ylamino)-N-phenyl-benzamide] | 1 to 10
17 | Cc1n[nH]c2ccnc(N3CCN(Cc4cc(F)ccc4F)CC3)c12 [Example 8, 4-[4-(2,5-Difluoro-benzyl)-piperazin-1-yl]-3-methyl-1H-pyrazolo[4,3-c]pyridine] | 1 to 10
18 | O=C(CCc1n[nH]c2ccnc(NC3CCCCC3)c12)N1CCCC1 [Example 173, 3-(4-Cyclohexylamino-1H-pyrazolo[4,3-c]pyridin-3-yl)-1-pyrrolidin-1-yl-propan-1-one] | 0.1 to 1
19 | COc1ccc(-c2n[nH]c3ccnc(NC4CCCCC4)c23)cc1 [Example 141, Cyclohexyl-[3-(4-methoxy-phenyl)-1H-pyrazolo[4,3-c]pyridin-4-yl]-amine] | 0.1 to 1
20 | Cc1n[nH]c2ccnc(NCCc3cccnc3)c12 [Example 351, (3-Methyl-1H-pyrazolo[4,3-c]pyridin-4-yl)-(2-pyridin-3-yl-ethyl)-amine] | 0.1 to 1
21 | CC[C@H](C)COc1nccc2[nH]nc(C)c12 [Example 284, 3-Methyl-4-((S)-2-methyl-butoxy)-1H-pyrazolo[4,3-c]pyridine] | < 0.1
22 | O=C(CCc1n[nH]c2ccnc(NC3CCCCC3)c12)N1CCC(c2ccccc2)C1 (stereo not shown) [Example 206, 3-(4-Cyclohexylamino-1H-pyrazolo[4,3-c]pyridin-3-yl)-1-(3-phenyl-pyrrolidin-1-yl)-propan-1-one] | < 0.1
23 | COc1ccc(CCNc2nccc3[nH]nc(C)c23)cc1 [Example 338, [2-(4-Methoxy-phenyl)-ethyl]-(3-methyl-1H-pyrazolo[4,3-c]pyridin-4-yl)-amine] | 1 to 10
24 | Cc1n[nH]c2ccnc(NCc3ccc(F)cc3)c12 [Example 316, (4-Fluoro-benzyl)-(3-methyl-1H-pyrazolo[4,3-c]pyridin-4-yl)-amine] | 1 to 10
25 | O=C(CCc1n[nH]c2ccnc(NC3CCCCC3)c12)N1CCCCC1c1cccnc1 (stereo not shown) [Example 208, 3-(4-Cyclohexylamino-1H-pyrazolo[4,3-c]pyridin-3-yl)-1-(3,4,5,6-tetrahydro-2H-[2,3′]bipyridinyl-1-yl)-propan-1-one] | < 0.1
26 | Cc1n[nH]c2ccnc(Nc3ccc4nccnc4c3)c12 [Example 352, (3-Methyl-1H-pyrazolo[4,3-c]pyridin-4-yl)-quinoxalin-6-yl-amine] | 1 to 10
27 | CCN(CC)C(=O)C1CCCN(C(=O)CCc2n[nH]c3ccnc(NC4CCCCC4)c23)C1 (stereo not shown) [Example 193, 1-[3-(4-Cyclohexylamino-1H-pyrazolo[4,3-c]pyridin-3-yl)-propionyl]-piperidine-3-carboxylic acid diethylamide] | 0.1 to 1
28 | O=C(CCc1n[nH]c2ccnc(NC3CCCCC3)c12)N1CCCC(Oc2ccccc2)C1 (stereo not shown) [Example 238, 3-(4-Cyclohexylamino-1H-pyrazolo[4,3-c]pyridin-3-yl)-1-(3-phenoxy-piperidin-1-yl)-propan-1-one] | 0.1 to 1
29 | Cc1n[nH]c2ccnc(Nc3ccc(Cl)cc3Cl)c12 [Example 306, (2,4-Dichloro-phenyl)-(3-methyl-1H-pyrazolo[4,3-c]pyridin-4-yl)-amine] | 0.1 to 1
30 | O=C(NCc1ccco1)c1ccc(CCc2n[nH]c3ccnc(NC4CCCCC4)c23)cc1 [Example 250, 4-[2-(4-Cyclohexylamino-1H-pyrazolo[4,3-c]pyridin-3-yl)-ethyl]-N-furan-2-ylmethyl-benzamide] | < 0.1
31 | Cc1n[nH]c2ccnc(Nc3cncc(-c4ccc(C#N)cc4)c3)c12 [Example 60, 4-[5-(3-Methyl-1H-pyrazolo[4,3-c]pyridin-4-ylamino)-pyridin-3-yl]-benzonitrile] | 0.1 to 1
32 | CC1CCCCN1C(=O)CCc1n[nH]c2ccnc(NC3CCCCC3)c12 (stereo not shown) [Example 198, 3-(4-Cyclohexylamino-1H-pyrazolo[4,3-c]pyridin-3-yl)-1-(2-methyl-piperidin-1-yl)-propan-1-one] | 0.1 to 1
33 | Fc1cccc(-c2n[nH]c3ccnc(NC4CCCCC4)c23)c1F [Example 159] | 1 to 10
34 | COc1ccc(-c2n[nH]c3ccnc(NC4CCCCC4)c23)cc1Cl [Example 140, [3-(3-Chloro-4-methoxy-phenyl)-1H-pyrazolo[4,3-c]pyridin-4-yl]-cyclohexyl-amine] | 0.1 to 1
